The values that follow come from ChEMBL document CHEMBL4052742, “Optimization of 1H-indazol-3-amine derivatives as potent fibroblast growth factor receptor inhibitors” (Bioorg Med Chem Lett, 2017).

The subject of one assay is SNU-16. Kind of assay: Antiproliferative activity against human SNU16 cells after 72 hrs by CCK-8 assay. The conditions noted are these: SNU-16, 72 h.
For assay [1], the target named is Fibroblast growth factor receptor 2 (Homo sapiens, UniProt P21802). Kind of assay: Inhibition of recombinant FGFR2 (unknown origin) using poly (Glu,Tyr)4:1 as substrate after 60 mins by ELISA based spectrophotometric analysis. (ELISA stands for enzyme-linked immunosorbent assay.)
The next assay deals with KG-1. In words: Antiproliferative activity against human KG1 cells after 72 hrs by CCK-8 assay. The conditions noted are these: KG-1, 72 h. For orientation: Tetrazolium assays rely on reduction of a dye to a coloured formazan, in cell work by metabolically active cells.
Assay [2] addresses Fibroblast growth factor receptor 1 (Homo sapiens, UniProt P11362). In words: Inhibition of recombinant FGFR1 (unknown origin) using poly (Glu,Tyr)4:1 as substrate after 60 mins by ELISA based spectrophotometric analysis.

Chain of Fibroblast growth factor receptor 1 (P11362 whole entry): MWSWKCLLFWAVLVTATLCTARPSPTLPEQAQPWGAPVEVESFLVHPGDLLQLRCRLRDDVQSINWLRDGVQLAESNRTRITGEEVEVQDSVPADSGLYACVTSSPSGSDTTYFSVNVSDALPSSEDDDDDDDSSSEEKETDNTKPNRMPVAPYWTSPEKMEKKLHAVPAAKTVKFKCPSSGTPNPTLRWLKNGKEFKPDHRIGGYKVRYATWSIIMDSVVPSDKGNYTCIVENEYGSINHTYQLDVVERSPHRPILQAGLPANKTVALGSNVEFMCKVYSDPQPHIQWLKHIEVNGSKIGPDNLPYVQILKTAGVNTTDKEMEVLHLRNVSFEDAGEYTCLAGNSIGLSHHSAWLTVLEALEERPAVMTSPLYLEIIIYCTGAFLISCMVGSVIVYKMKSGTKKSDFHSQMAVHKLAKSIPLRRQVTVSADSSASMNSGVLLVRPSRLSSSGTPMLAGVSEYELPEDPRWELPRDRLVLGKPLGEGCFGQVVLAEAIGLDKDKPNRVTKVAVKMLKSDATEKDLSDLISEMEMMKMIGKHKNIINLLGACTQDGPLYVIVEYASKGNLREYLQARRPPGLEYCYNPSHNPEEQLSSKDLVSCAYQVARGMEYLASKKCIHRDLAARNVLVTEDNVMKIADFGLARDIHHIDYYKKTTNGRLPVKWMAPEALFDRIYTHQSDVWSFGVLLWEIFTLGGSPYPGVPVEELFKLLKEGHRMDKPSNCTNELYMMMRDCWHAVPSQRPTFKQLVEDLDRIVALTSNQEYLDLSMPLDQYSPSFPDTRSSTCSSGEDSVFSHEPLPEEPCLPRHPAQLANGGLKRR
Chain of Fibroblast growth factor receptor 2 (P21802 whole entry): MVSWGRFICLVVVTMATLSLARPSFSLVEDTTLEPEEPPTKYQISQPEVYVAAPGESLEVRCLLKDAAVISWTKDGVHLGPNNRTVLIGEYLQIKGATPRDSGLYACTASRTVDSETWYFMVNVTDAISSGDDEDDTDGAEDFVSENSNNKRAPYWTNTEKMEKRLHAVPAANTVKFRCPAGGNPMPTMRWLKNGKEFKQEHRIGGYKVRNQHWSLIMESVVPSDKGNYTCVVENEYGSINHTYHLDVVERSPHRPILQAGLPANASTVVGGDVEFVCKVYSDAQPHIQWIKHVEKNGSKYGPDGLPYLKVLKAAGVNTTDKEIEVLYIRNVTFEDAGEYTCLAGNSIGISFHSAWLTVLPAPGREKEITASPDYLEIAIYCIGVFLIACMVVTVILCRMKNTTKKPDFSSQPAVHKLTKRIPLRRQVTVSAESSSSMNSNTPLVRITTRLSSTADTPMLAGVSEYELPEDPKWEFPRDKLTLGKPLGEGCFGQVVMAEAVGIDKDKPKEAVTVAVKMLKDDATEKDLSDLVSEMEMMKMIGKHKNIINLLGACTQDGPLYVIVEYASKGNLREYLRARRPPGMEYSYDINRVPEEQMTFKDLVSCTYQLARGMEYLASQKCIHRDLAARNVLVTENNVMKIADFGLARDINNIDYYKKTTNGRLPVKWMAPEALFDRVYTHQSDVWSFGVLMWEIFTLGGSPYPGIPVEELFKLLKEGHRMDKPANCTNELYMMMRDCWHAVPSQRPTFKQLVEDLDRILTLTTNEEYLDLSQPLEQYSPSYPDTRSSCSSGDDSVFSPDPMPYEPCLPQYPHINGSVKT

With `CCN1CCN(c2ccc(C(=O)Nc3n[nH]c4cc(-c5cccc(OC)c5F)ccc34)cc2C(F)(F)F)CC1`, the IC50 (in the assay with SNU-16; in assay [1]; in the assay with KG-1; in assay [2]) was over 1 µM each time.
With `CCN1CCN(c2ccc(C(=O)Nc3n[nH]c4cc(-c5c(F)cc(F)c(OC)c5F)ccc34)cc2)CC1`, the IC50 in the assay with SNU-16 and in the assay on KG-1 was over 1 µM in each case.
With `CCN1CCN(c2ccc(C(=O)Nc3n[nH]c4cc(-c5cccc(OC)c5F)ccc34)cc2)CC1`, the IC50 stood at 0.591 µM in the assay on SNU-16 and 0.284 µM with KG-1.
The corresponding values for `COCCN1CCN(c2ccc(C(=O)Nc3n[nH]c4cc(-c5c(F)ccc(OC)c5F)ccc34)cc2)CC1` are 0.431 µM and 0.0473 µM.
As to `CCN1CCN(c2ccc(C(=O)Nc3n[nH]c4cc(-c5cccc(OC)c5F)c(F)cc34)cc2)CC1`, the concentration for half-maximal inhibition (IC50) in the assay on SNU-16 was over 1 µM; in the assay on KG-1, 0.684 µM.
Regarding `COc1ccc(F)c(-c2ccc3c(NC(=O)c4ccc(N5C[C@@H](C)N[C@@H](C)C5)cc4)n[nH]c3c2)c1F`, the half-maximal inhibitory concentration (IC50) in the assay with SNU-16 was found to be 0.582 µM; in the assay on KG-1, 0.348 µM.
Turning to `COc1ccc(F)c(-c2ccc3c(NC(=O)c4ccc(N5CCCN(C)CC5)cc4)n[nH]c3c2)c1F`, the IC50 with SNU-16 was determined as 0.102 µM; with KG-1, 0.0515 µM.
In the case of `COc1cccc(-c2ccc3c(NC(=O)c4ccc(N5CCN(C)CC5)c(F)c4)n[nH]c3c2)c1F`, the IC50 in the assay on SNU-16 and in the assay on KG-1 was over 1 µM each time.
Take `COc1ccc(F)c(-c2ccc3c(NC(=O)c4ccc(N(C)CCN(C)C)cc4)n[nH]c3c2)c1F`: the half-maximal inhibitory concentration (IC50) amounted to 0.366 µM with SNU-16 and 0.333 µM in the assay on KG-1.
`COc1cccc(-c2ccc3c(NC(=O)c4ccc(N5CCN(C)CC5)cc4F)n[nH]c3c2)c1F`: the IC50 (in the assay with SNU-16; in assay [1]; in the assay with KG-1; in assay [2]) was over 1 µM each time.
Take `COc1ccc(F)c(-c2ccc3c(NC(=O)c4ccc(N5CCN(C)CC5)cc4)n[nH]c3c2)c1F`: the concentration for half-maximal inhibition (IC50) was 0.0356 µM in the assay with SNU-16, under 0.0041 µM in assay [1] and 0.0415 µM in the assay with KG-1.
`COCCN1CCN(c2ccc(C(=O)Nc3n[nH]c4cc(-c5c(F)cc(F)c(OC)c5F)ccc34)cc2)CC1`: the IC50 in the assay with SNU-16 and in the assay on KG-1 was over 1 µM each time.
`COc1ccc(F)c(-c2ccc3c(NC(=O)c4ccc(N5CCN(C(C)=O)CC5)cc4)n[nH]c3c2)c1F`: the IC50 in the assay with SNU-16 amounted to 0.322 µM; in assay [1], 0.0029 µM; with KG-1 it was 0.595 µM.
Consider `CCN1CCN(c2ccc(C(=O)Nc3n[nH]c4cc(-c5cccc(OC)c5F)cc(F)c34)cc2)CC1`, for which the IC50 in the assay on SNU-16 and with KG-1 was over 1 µM each time.
With `CCN1CCN(c2ccc(C(=O)Nc3n[nH]c4cc(-c5c(F)ccc(OC)c5F)ccc34)cc2)CC1`, the values for the IC50 (in the assay with SNU-16; in the assay with KG-1; in assay [2]) were 0.0774 µM, 0.0253 µM and under 0.0041 µM, respectively.
As for `COc1cc(CCc2cc(NC(=O)c3ccc(N4C[C@@H](C)N[C@@H](C)C4)cc3)n[nH]2)cc(OC)c1` [FEXAGRATINIB], the IC50 with SNU-16 was determined as 0.0034 µM; in the assay with KG-1 it was 0.0033 µM.

The term IC50 denotes the point on the concentration scale where inhibition reaches its midpoint.
